Experimental data reported in patent US20260272797A1, “FRAGRANCE COMPOSITION” (GIVAUDAN SA, priority 2023, published 2026).

Key:
[1] = Impact of fragrance ingredients on scalp malodour counteractancy of 80 fragrance compositions (Example 2 protocol, statistical presence); conditions: series of 80 fragrance compositions
Procedure: In a second set of experiments, the impact of these fragrance ingredients on the scalp malodour counteractancy of a fragrance composition was assessed. The scalp malodour counteractancy of a series of 80 fragrance compositions was assessed by performing the evaluation protocol described in Example 2. […] Ingredients that were statistically more present in fragrances having a high malodour counteractancy were assigned a positive status, whereas ingredients that were statistically more present in compositions having a low malodour counteractancy were assigned a negative status.

[2] = Gas-phase evaluation of each fragrance ingredient alone against model scalp malodour, MiniVAS device, panel of 5 experts; conditions: for Scalp MOC of ingredient alone: expert description
Procedure: In a first set of experiments, the scalp malodour counteractancy of 173 fragrance ingredients was evaluated by panel of 5 experts.
The evaluation was performed in the gas phase, using a MiniVAS™ device (ex Givaudan SA). This device is a regulating means that comprises a plurality of channels adapted to convey a gas (more particularly air) through cartridges, each cartridge containing a fragrance ingredient adsorbed onto an adsorbent. The air flows coming from the different cartridges are admixed and conveyed to the user's nose through a tubing fitted with an olfactometer funnel. Thus, by opening and closing channels and maintaining these opened and closed, respectively, for predetermined times, the regulating means can determine which fragrance ingredients and how much thereof are conveyed and when, and thus alter the nature of the fragrance perceived by the user. A description of the device can be found in WO2014154909A1, page 2, line 11 to page 4, line 7, and in H. R. Gygax et al. “Evolution of Real Time Aroma Creation at Givaudan”, poster presented at the 12th Weurman Flavour Research Symposium. July 2008. Interlaken, Switzerland; DOI: 10.13140/2.1.1924.0641.
For the sake of the present evaluation, one cartridge contained the scalp malodour (in the form of a model malodour) and each fragrance ingredient was assigned to another cartridge. The malodour counteractancy of each fragrance ingredient was evaluated separately against the scalp malodour. A constant air flow rate of 50 ml/min was used for all measurements. The perceived malodour intensity, as well as the fragrance intensity, were ranked on a scale of 1-5 (1=barely noticeable, 2=weak, 3=medium, 4=strong and 5=very strong).

[3] = Table 4, air flow 50 ml/min, scale of 1-5
[4] = Table 3, air flow 50 ml/min, scale of 1-5 (1=barely noticeable, 5=very strong)

Compound: C=CCc1ccc(OC(C)=O)c(OC)c1 [4-allyl-2-methoxyphenyl acetate]
- Impact on scalp MOC of fragrance composition ([1]; Table 4): Negative
- MO intensity [2, 3]: 1

Compound: COc1cc(C=O)ccc1OC(=O)C(C)C [4-formyl-2-methoxyphenyl 2-methylpropanoate]
- Impact on scalp MOC of fragrance composition ([1]; Table 3): Positive
- MO intensity [2, 4]: 1.5

Compound: COc1ccc(C=O)cc1 [4-methoxybenzaldehyde]
- Impact on scalp MOC of fragrance composition ([1]; Table 3): Positive
- MO intensity [2, 4]: 3

Compound: CCCCC1CCC(=O)O1 (stereo not drawn) [5-butyloxolan-2-one]
- Impact on scalp MOC of fragrance composition ([1]; Table 4): Negative
- MO intensity [2, 3]: 3.8

Compound: CCCCCCC1CCC(=O)O1 (stereo not drawn) [5-hexyloxolan-2-one]
- Impact on scalp MOC of fragrance composition ([1]; Table 3): Positive
- MO intensity [2, 4]: 3

Compound: CCCC1(C(C)(C)C)C=CC(C)O1 (stereo not drawn) [5-tert-butyl-2-methyl-5-propyl-2H-furan]
- Impact on scalp MOC of fragrance composition ([1]; Table 3): Positive
- MO intensity [2, 4]: 4

Compound: CCCCCCCC1CCCC(=O)O1 (stereo not drawn) [6-heptyltetrahydro-2H-pyran-2-one]
- Impact on scalp MOC of fragrance composition ([1]; Table 3): Positive
- MO intensity [2, 4]: 3

Compound: CCC(C)(CCCC(C)C=O)OC (stereo not drawn) [6-methoxy-2,6-dimethyloctanal]
- Impact on scalp MOC of fragrance composition ([1]; Table 3): Positive
- MO intensity [2, 4]: 3

Compound: CCCC1CCCC(=O)O1 (stereo not drawn) [6-propyltetrahydro-2H-pyran-2-one]
- Impact on scalp MOC of fragrance composition ([1]; Table 4): Negative
- MO intensity [2, 3]: 3.8

Compound: CC(CC=O)CCCC(C)(C)O (stereo not drawn) [7-hydroxy-3,7-dimethyloctanal]
- Impact on scalp MOC of fragrance composition ([1]; Table 3): Positive
- MO intensity [2, 4]: 2

Compound: CC(C)CCc1ccc2c(c1)OCC(=O)CO2 [7-isopentyl-2H-benzo[b][1,4]dioxepin-3(4H)-one]
- Impact on scalp MOC of fragrance composition ([1]; Table 3): Positive
- MO intensity [2, 4]: 4.5

Compound: Cc1ccc2c(c1)OCC(=O)CO2 [8-methyl-1,5-benzodioxepin-3-one]
- Impact on scalp MOC of fragrance composition ([1]; Table 3): Positive
- MO intensity [2, 4]: 3.5

Compound: CC1CCC2(CCC(=O)O2)CC1 (stereo not drawn) [8-methyl-1-oxaspiro[4.5]decan-2-one]
- Impact on scalp MOC of fragrance composition ([1]; Table 3): Positive
- MO intensity [2, 4]: 2.7

Compound: CC1(C)[C@H]2CC[C@]1(C)C(=O)C2 [(1S,4S)-1,7,7-trimethylbicyclo[2.2.1]heptan-2-one]
- Impact on scalp MOC of fragrance composition ([1]; Table 3): Positive
- MO intensity [2, 4]: 4.5

Compound: CC(=O)O[C@]1(C)CC[C@]23CC1C(C)(C)C2CC[C@@H]3C (stereo partly drawn) [(1S,6R,8aR)-1,4,4,6-tetramethyloctahydro-1H-5,8a-methanoazulen-6-yl acetate]
- Impact on scalp MOC of fragrance composition ([1]; Table 3): Positive
- MO intensity [2, 4]: 1
- Scalp MOC of ingredient alone ([2]; Table 3, gas phase): No effect

Compound: OCC1COC(Cc2ccccc2)O1 (stereo not drawn) [(2-benzyl-1,3-dioxolan-4-yl)methanol]
- Impact on scalp MOC of fragrance composition ([1]; Table 4): Negative
- MO intensity [2, 3]: 1

Compound: CCCCC/C=C\C=C\C(=O)OCC [(2E,4Z)-ethyl deca-2,4-dienoate]
- Impact on scalp MOC of fragrance composition ([1]; Table 4): Negative
- MO intensity [2, 3]: 1

Compound: C/C=C/C(=O)/C(C)=C(\C)C(C)C [(2E,5E)-5,6,7-trimethylocta-2,5-dien-4-one]
- Impact on scalp MOC of fragrance composition ([1]; Table 3): Positive
- MO intensity [2, 4]: 1.5

Compound: CC1=CC[C@H]2C(C1)C1CC2[C@@]2(C1)OC2C (stereo partly drawn) [(2R,8aS)-3′,6-dimethyl-3,4,4a,5,8,8a-hexahydro-1H-spiro[1,4-methanonaphthalene-2,2′-oxirane]]
- Impact on scalp MOC of fragrance composition ([1]; Table 3): Positive
- MO intensity [2, 4]: 1
- Scalp MOC of ingredient alone ([2]; Table 3, gas phase): No effect

Compound: CC1(C)CCC[C@]2(C)[C@H]3CCO[C@]3(C)CC[C@@H]12 [(3aR,5aS,9aS,9bR)-3a,6,6,9a-tetramethyl-2,4,5,5a,7,8,9,9b-octahydro-1H-benzo[e][1]benzofuran]
- Impact on scalp MOC of fragrance composition ([1]; Table 3): Positive
- MO intensity [2, 4]: 1
- Scalp MOC of ingredient alone ([2]; Table 3, gas phase): No effect

Compound: CC(=O)O[C@H]1CC2CC1[C@H]1CC=C[C@@H]21 (stereo partly drawn) [(3aR,6S,7aS)-3a,4,5,6,7,7a-hexahydro-1H-4,7-methanoinden-6-yl acetate]
- Impact on scalp MOC of fragrance composition ([1]; Table 4): Negative
- MO intensity [2, 3]: 3.8

Compound: CCC(=O)O[C@H]1CC2CC1[C@H]1CC=C[C@@H]21 (stereo partly drawn) [(3aR,6S,7aS)-3a,4,5,6,7,7a-hexahydro-1H-4,7-methanoinden-6-yl propanoate]
- Impact on scalp MOC of fragrance composition ([1]; Table 4): Negative
- MO intensity [2, 3]: 1.3

Compound: CC(C)C1CCC(CO)CC1 (stereo not drawn) [(4-isopropylcyclohexyl)methanol]
- Impact on scalp MOC of fragrance composition ([1]; Table 3): Positive
- MO intensity [2, 4]: 3

Compound: CC(C)c1ccc(CO)cc1 [(4-isopropylphenyl)methanol]
- Impact on scalp MOC of fragrance composition ([1]; Table 3): Positive
- MO intensity [2, 4]: 2

Compound: C/C(=C\CCC=O)CCCC(C)(C)O [(4E)-9-hydroxy-5,9-dimethyl-4-decenal]
- Impact on scalp MOC of fragrance composition ([1]; Table 3): Positive
- MO intensity [2, 4]: 1
- Scalp MOC of ingredient alone ([2]; Table 3, gas phase): No effect

Compound: C[C@@H]1CC[C@H]2C(C)(C)[C@H]3C[C@@]12CC1OC(C)(C)OC13C (stereo partly drawn) [(4aR,5R,7aS,9R)-Octahydro-2,2,5,8,8,9a-hexamethyl-4H-4a,9-methanoazuleno[5,6-d]-1,3-dioxole]
- Impact on scalp MOC of fragrance composition ([1]; Table 3): Positive
- MO intensity [2, 4]: 4

Compound: C=C(C)[C@@H]1CC=C(C)C(=O)C1 [(5R)-2-methyl-5-prop-1-en-2-ylcyclohex-2-en-1-one]
- Impact on scalp MOC of fragrance composition ([1]; Table 4): Negative
- MO intensity [2, 3]: 0
- Scalp MOC of ingredient alone ([2]; Table 4, gas phase): Enhances MO

Compound: C/C=C/c1ccc(OC)c(OC)c1 [(E)-1,2-dimethoxy-4-(prop-1-en-1-yl)benzene]
- Impact on scalp MOC of fragrance composition ([1]; Table 4): Negative
- MO intensity [2, 3]: 3.3

Compound: C/C=C/C(=O)C1=C(C)CCCC1(C)C [(E)-1-(2,6,6-trimethyl-1-cyclohexenyl)but-2-en-1-one]
- Impact on scalp MOC of fragrance composition ([1]; Table 3): Positive
- MO intensity [2, 4]: 2.8
- Scalp MOC of ingredient alone ([2]; Table 3, gas phase): Coverage

Compound: C/C=C/C(=O)C1C(C)=CCCC1(C)C (stereo not drawn) [(E)-1-(2,6,6-trimethylcyclohex-2-en-1-yl)but-2-en-1-one]
- Impact on scalp MOC of fragrance composition ([1]; Table 3): Positive
- MO intensity [2, 4]: 3.7

Compound: C=CCCC(=O)/C=C/C1C(C)=CCCC1(C)C (stereo not drawn) [(E)-1-(2,6,6-trimethylcyclohex-2-en-1-yl)hepta-1,6-dien-3-one]
- Impact on scalp MOC of fragrance composition ([1]; Table 4): Negative
- MO intensity [2, 3]: 3
- Scalp MOC of ingredient alone ([2]; Table 4, gas phase): Good coverage

Compound: CCC(=O)/C=C/C1C(C)=CCCC1(C)C (stereo not drawn) [(E)-1-(2,6,6-trimethylcyclohex-2-en-1-yl)pent-1-en-3-one]
- Impact on scalp MOC of fragrance composition ([1]; Table 3): Positive
- MO intensity [2, 4]: 3

Compound: C/C=C/C(=O)C1=C(C)C=CCC1(C)C [(E)-1-(2,6,6-trimethylcyclohexa-1,3-dien-1-yl)but-2-en-1-one]
- Impact on scalp MOC of fragrance composition ([1]; Table 3): Positive
- MO intensity [2, 4]: 2.8

Compound: C/C=C/c1ccc(OC)cc1 [(E)-1-methoxy-4-(prop-1-en-1-yl)benzene]
- Impact on scalp MOC of fragrance composition ([1]; Table 3): Positive
- MO intensity [2, 4]: 4

Compound: C/C(=C\C(C)C)C(C)OC(C)(C)COC(=O)C1CC1 (stereo not drawn) [(E)-2-((3,5-dimethylhex-3-en-2-yl)oxy)-2-methylpropyl cyclopropanecarboxylate]
- Impact on scalp MOC of fragrance composition ([1]; Table 4): Negative
- MO intensity [2, 3]: 1

Compound: CCCCCC/C(C=O)=C\c1ccccc1 [(E)-2-benzylideneoctanal]
- Impact on scalp MOC of fragrance composition ([1]; Table 4): Negative
- MO intensity [2, 3]: 1.2

Compound: C/C=C/c1ccc(O)c(OC)c1 [(E)-2-methoxy-4-(prop-1-en-1-yl)phenol]
- Impact on scalp MOC of fragrance composition ([1]; Table 3): Positive
- MO intensity [2, 4]: 4.5
